{"source": "paper PMC5933261", "about": "“A phase 1 dose-escalation study of veliparib with bimonthly FOLFIRI in patients with advanced solid tumours” (British Journal of Cancer, 2018)", "key": {"[1]": {"system": "patients with advanced solid tumours", "from_the_text": "This phase 1 open-label, multicentre, dose-escalation, and safety expansion study evaluated veliparib in combination with bimonthly FOLFIRI in patients with advanced solid tumours. The primary objectives were to determine the maximum tolerated dose (MTD) and establish the recommended phase 2 dose (RP2D) of the combination therapy. Secondary objectives were to assess the safety and tolerability, PK profile, and exploratory efficacy of the combination for each of the FOLFIRI regimens. Patients received veliparib and bimonthly FOLFIRI in 28-day cycles. Veliparib was administered on days 15–19 in cycle 1 and on days 1–5 and 15–19 in subsequent cycles (Fig. 1). Patients with stable disease or better status could continue veliparib and bimonthly FOLFIRI at the investigator’s discretion until progressive disease (PD), unacceptable toxicity, or FOLFIRI discontinuation. The trial was registered with the ClinicalTrials.gov registry (NCT01123876) and was approved by appropriate independent ethics committees/institutional review boards prior to initiation. The study was performed in accordance with the 1964 Declaration of Helsinki and its later amendments. Written informed consent was obtained from all patients before study enrollment.\nDose escalation occurred in three parts to evaluate the MTD/RP2D of three different bimonthly FOLFIRI regimens in combination with veliparib (Fig. 1). A minimum of three patients per dose level were included for dose-toxicity modeling. In part 1, dose escalation began with veliparib twice daily (BID) on days 15–19 of cycle 1 (to allow the determination of single-agent PK for irinotecan, the active metabolite of irinotecan (SN-38), folinic acid, and 5-FU on cycle 1 day 1). In parts 2 and 3, dose escalation began with veliparib BID on day 15 of cycle 1. The differences in the dosing schedules of parts 1, 2, and 3 relate to dosing of irinotecan and 5-FU, and are detailed in Fig. 1. In all parts, veliparib continued to be administered on days 1–5 and 15–19 of each subsequent 28-day cycle. […]"}, "advanced solid tumours": {"system": "advanced solid tumours", "assay": "Exploratory efficacy: ORR (RECIST version 1.1), TTP, DOR", "format": "in vivo, human", "from_the_text": "The sample size was based on clinical justification."}, "[2]": {"system": "patients with advanced solid tumours", "set-up": "method as in PMID 26842236", "conditions": "veliparib 40 mg BID days 1–14 of a 21-day cycle with irinotecan 100 mg/m^2 day 1 and 8; cited from earlier work"}, "[3]": {"system": "triple-negative breast cancer", "set-up": "method as in doi:10.1158/1538-7445.AM2015-CT325", "conditions": "veliparib in combination with irinotecan; cohort with germline BRCA mutation; cited from earlier work"}, "[4]": {"assay": "Veliparib pharmacokinetics, cycle 1 day 15", "format": "in vivo, human", "conditions": "co-administered with FOLFIRI; 10–270 mg BID"}, "[5]": {"assay": "Pharmacokinetics of FOLFIRI components with and without veliparib (relative bioavailability)", "conditions": "cycle 1 day 15 vs cycle 1 day 1", "experimental": "Treatment-emergent adverse events (TEAEs) were assessed from the time of study drug administration until 30 days following discontinuation of study drug. TEAEs were assessed according to the National Cancer Institute Common Terminology Criteria for Adverse Events version 4.0. In dose-escalation cohorts, blood samples were collected on day 15 of cycle 1 for veliparib PK, and on days 1 and 15 of cycle 1 for PK assessment of the FOLFIRI components irinotecan, SN-38, folinic acid (leucovorin), and 5-FU. Exploratory efficacy end points included objective response rate (ORR), time to disease progression (TTP), duration of overall response (DOR), and ECOG performance status. Objective response rate included confirmed complete response (CR) and partial response (PR). Objective response rate evaluation was based on Response Evaluation Criteria in Solid Tumours version 1.1. Objective response rate was calculated for all patients with one or more measurable lesions at baseline. Time to disease progression was defined as the number of days from the date the patient started study drug to the date of the patient’s disease progression. Duration of overall response was defined as the number of days from the day criteria were met for CR or PR (whichever was recorded first) to the date that PD was objectively documented. If a patient was still responding, the patient’s data were censored at the date of the last study visit at which a tumour assessment was performed. Analyses of change and/or percentage change from baseline for tumour size were performed for each scheduled post-baseline visit and for the final visit. ECOG performance status was assessed at all visits, with descriptive statistics summarised for each assessment. In addition, a mean change from baseline to each assessment time was summarised.\nThe sample size was based on clinical justification. No specific statistical hypothesis tests were planned, with descriptive statistics used for the analysis of safety, PK, and tumour response data. The study population for all safety and preliminary efficacy analyses included patients who received one or more doses of study medication. Data from parts 1–3 of the dose-escalation cohort were combined for assessment of the effect of veliparib on the PK of irinotecan, SN-38, and folinic acid. Linear mixed effects models were performed on natural logarithmically transformed maximum plasma concentration (Cmax) and area under the plasma or serum concentration-time curve (AUC) to compare exposure of irinotecan, SN-38, and folinic acid with and without the administration of veliparib. Point estimates and the corresponding 90% confidence intervals (CIs) of the ratio of central values with and without veliparib administration were calculated."}}, "note": "Entries after “also recorded” stand apart in the source; their conditions may differ.", "data": [{"smiles": "C[C@]1(c2nc3c(C(N)=O)cccc3[nH]2)CCCN1", "note": "[veliparib, Veliparib]", "values": [{"measurement": "Recommended phase 2 dose (RP2D) of veliparib", "setting": "[1]; human, in vivo", "result": 200, "unit": "mg BID"}, {"measurement": "Maximum tolerated dose (MTD)", "setting": "[1]; veliparib 10–270 mg BID plus FOLFIRI, Bayesian CRM", "result": "not reached"}, {"measurement": "Median time to disease progression (TTP)", "setting": "advanced solid tumours; expanded safety cohort, colorectal (N=6)", "result": 195, "unit": "days"}, {"measurement": "6-month TTP rate", "setting": "advanced solid tumours; expanded safety cohort, colorectal cancer (n = 6), veliparib RP2D plus FOLFIRI", "result": 60.0, "unit": "%"}, {"measurement": "Median time to disease progression (TTP)", "setting": "advanced solid tumours; expanded safety cohort, gastric (N=14)", "result": 223, "unit": "days"}, {"measurement": "6-month TTP rate", "setting": "advanced solid tumours; expanded safety cohort, gastric cancer (n = 14), veliparib RP2D plus FOLFIRI", "result": 53.8, "unit": "%"}, {"measurement": "Complete response (CR)", "setting": "advanced solid tumours; veliparib plus FOLFIRI", "result": "not achieved by any patients"}, {"measurement": "Patients with a partial response", "setting": "advanced solid tumours; veliparib plus FOLFIRI", "result": "Fifteen"}, {"measurement": "Objective response rate (ORR)", "setting": "advanced solid tumours; veliparib plus FOLFIRI, 85 patients with measurable lesions at baseline", "result": 17.6, "unit": "%"}, {"measurement": "ORR (CR + PR)", "setting": "advanced solid tumours; veliparib plus FOLFIRI, Breast n = 8", "result": "2 (25.0) (3.2–65.1) n (%) (95% CI)"}, {"measurement": "ORR (CR + PR)", "setting": "advanced solid tumours; veliparib plus FOLFIRI, Colorectal n = 9", "result": "2 (22.2) (2.8–60.0) n (%) (95% CI)"}, {"measurement": "ORR (CR + PR)", "setting": "advanced solid tumours; veliparib plus FOLFIRI, Gastric n = 20", "result": "3 (15.0) (3.2–37.9) n (%) (95% CI)"}, {"measurement": "ORR (CR + PR)", "setting": "advanced solid tumours; veliparib plus FOLFIRI, Other n = 27", "result": "3 (11.1) (2.4–29.2) n (%) (95% CI)"}, {"measurement": "ORR (CR + PR)", "setting": "advanced solid tumours; veliparib plus FOLFIRI, Ovarian n = 7", "result": "3 (42.9) (9.9–81.6) n (%) (95% CI)"}, {"measurement": "ORR (CR + PR)", "setting": "advanced solid tumours; veliparib plus FOLFIRI, Overall n = 85, measurable lesions at baseline", "result": "15 (17.6) (10.2–27.4) n (%) (95% CI)"}, {"measurement": "ORR (CR + PR)", "setting": "advanced solid tumours; veliparib plus FOLFIRI, Pancreatic n = 14", "result": "2 (14.3) (1.8–42.8) n (%) (95% CI)"}, {"measurement": "Median time to disease progression (TTP)", "setting": "advanced solid tumours; veliparib plus FOLFIRI, all dosed patients, colorectal (N=10)", "result": 195, "unit": "days"}, {"measurement": "Median time to disease progression (TTP)", "setting": "advanced solid tumours; veliparib plus FOLFIRI, all dosed patients, gastric (N=20)", "result": 157, "unit": "days"}, {"measurement": "Median time to disease progression (TTP)", "setting": "advanced solid tumours; veliparib plus FOLFIRI, all dosed patients, ovarian (N=9)", "result": 361, "unit": "days"}, {"measurement": "Objective response rate (ORR)", "setting": "advanced solid tumours; veliparib plus FOLFIRI, breast cancer", "result": 25.0, "unit": "%"}, {"measurement": "6-month TTP rate", "setting": "advanced solid tumours; veliparib plus FOLFIRI, breast cancer (n = 9)", "result": 22.2, "unit": "%"}, {"measurement": "Objective response rate (ORR)", "setting": "advanced solid tumours; veliparib plus FOLFIRI, colorectal cancer", "result": 22.2, "unit": "%"}, {"measurement": "6-month TTP rate", "setting": "advanced solid tumours; veliparib plus FOLFIRI, colorectal cancer (n = 10)", "result": 50.8, "unit": "%"}, {"measurement": "6-month TTP rate", "setting": "advanced solid tumours; veliparib plus FOLFIRI, gastric cancer (n = 20)", "result": 45.9, "unit": "%"}, {"measurement": "6-month TTP rate", "setting": "advanced solid tumours; veliparib plus FOLFIRI, other cancers (n = 30)", "result": 21.2, "unit": "%"}, {"measurement": "Objective response rate (ORR)", "setting": "advanced solid tumours; veliparib plus FOLFIRI, ovarian cancer (n = 7)", "result": 42.9, "unit": "%"}, {"measurement": "6-month TTP rate (probability of remaining progression-free for 6 months)", "setting": "advanced solid tumours; veliparib plus FOLFIRI, ovarian cancer (n = 9)", "result": 65, "unit": "%"}, {"measurement": "Objective response rate (ORR)", "setting": "advanced solid tumours; veliparib plus FOLFIRI, pancreatic cancer", "result": 14.3, "unit": "%"}, {"measurement": "6-month TTP rate", "setting": "advanced solid tumours; veliparib plus FOLFIRI, pancreatic cancer (n = 14)", "result": 26.8, "unit": "%"}, {"measurement": "Median duration of overall response (DOR)", "setting": "advanced solid tumours; veliparib plus FOLFIRI, patients who received irinotecan 150 mg/m^2", "result": 560, "unit": "days"}, {"measurement": "Response rates", "setting": "advanced solid tumours; veliparib plus FOLFIRI, previously treated patient population", "result": "over 15%"}, {"measurement": "Tolerability", "setting": "[2]", "result": "well tolerated"}, {"measurement": "Preliminary response rate", "setting": "[3]", "result": 88, "unit": "%"}, {"measurement": "Dose proportionality of veliparib exposure (Cmax, AUC)", "setting": "[4]", "result": "approximately dose-proportional; also recorded: approximate dose proportionality"}, {"measurement": "Effect of veliparib on the pharmacokinetics of FOLFIRI components", "setting": "[5]", "result": "no significant effect"}, {"measurement": "Effect of veliparib on the pharmacokinetics of FOLFIRI components", "setting": "[5]; listed as Veliparib", "result": "no effect"}]}]}
